We go through 7 compounds from US12409129B2, “Skin care composition” (BEIERSDORF AG, priority 2019, dated 2025).

For one assay, the system named is C. acnes strain K8. Description: Minimum inhibitory concentration (MIC) / compatibility of cosmetic excipients. It is filed as cell-based, Cutibacterium acnes. The settings on record: % w/vol, incubated anaerobically 3 days at 37° C, growth scored visually. The method, then: (§1) In microbiology, the MIC is the lowest concentration of a chemical which prevents visible growth of bacterium. The resulted MIC value depends both on the microorganism and the test compound. The MIC is determined by preparing concentrations series of the test compound in vitro, incubating the solutions with the separate batches of cultured bacteria, and measuring the results using agar dilution or broth microdilution. For the experiments with C. acnes strains C3 and K8, media comprising yeast extract soy peptone and dextrose were used. The MIC is determined by turbidity.
(§2) A total of 125 cosmetic excipients were tested for their compatibility with C. acnes strains C3 and K8. Hydrophilic compounds were tested in a 96-well plate liquid broth format, poorly soluble compounds were pre-dissolved in DMSO before dilution in liquid broth and hydrophobic or solid compounds were tested in an agar well diffusion test assay. The different dilutions of the test excipients in media were prepared in Falcon tubes and then distributed in a deep well plate using a multistepper. Each well received 1.2 ml and was subsequently inoculated with 120 μl of C. acnes bacteria suspension (strain C3 and K8). From the deep well plate 200 μl were transferred in each well of a clear 96 well replicate plate. The leftover was discarded. The plates were then incubated anaerobically for 3 days at 37° C. Following incubation, the test plates were visually examined and wells were scored for growth or complete growth inhibition to define the minimum inhibitory concentration.
(§3) These excipients are listed in the below table with their compatibility values for C. acnes strains C3 and K8. The compatibility values represent the MIC value of the listed ingredients with the tested C. acnes strains. At this concentration [% w/vol] the tested compound starts interfering with the growth of the tested strains. The compounds can be used in formulations at concentrations below this concentration.

For the next assay, the system named is C. acnes strain C3. The description is as above. Format: cell-based, Cutibacterium acnes. The settings on record: % w/vol, incubated anaerobically 3 days at 37° C, growth scored visually. The method, then: as §1, §2, §3

For ethylhexyl cocoate, the “COMPATABILITY VALUE K8 [%] (MIC value)” value in the assay on C. acnes strain K8 is 10.00%. In addition, the “COMPATABILITY VALUE C3 [%] (MIC value)” value with C. acnes strain C3 amounted to 10.00%.
Turning to `CC(CO)CO` [methylpropanediol], the “COMPATABILITY VALUE K8 [%] (MIC value)” value in the assay with C. acnes strain K8 is reported as 4.00%. In addition, in the assay with C. acnes strain C3, the “COMPATABILITY VALUE C3 [%] (MIC value)” value stood at 4.00%.
As for `O=C(O)CC(O)(CC(=O)O)C(=O)O` [citric acid], the “COMPATABILITY VALUE K8 [%] (MIC value)” value in the assay with C. acnes strain K8 was 0.08%. Besides, the “COMPATABILITY VALUE C3 [%] (MIC value)” value with C. acnes strain C3 was determined as 0.33%.
`CC(=O)Oc1c(C)c(C)c2c(c1C)CCC(C)(CCC[C@H](C)CCC[C@H](C)CCCC(C)C)O2` (some centres unmarked) [tocopheryl acetate]: the “COMPATABILITY VALUE K8 [%] (MIC value)” value in the assay with C. acnes strain K8 is 1.00%. For the same compound, the “COMPATABILITY VALUE C3 [%] (MIC value)” value in the assay on C. acnes strain C3 amounted to 1.00%.
As to tocopherol, the “COMPATABILITY VALUE K8 [%] (MIC value)” value in the assay on C. acnes strain K8 came to 1.50%. In the assay on C. acnes strain C3, the “COMPATABILITY VALUE C3 [%] (MIC value)” value turned out to be 1.50%.
On to `CCO` [ethanol], for which, in the assay with C. acnes strain K8, the “COMPATABILITY VALUE K8 [%] (MIC value)” value is recorded as 3.75%. Moreover, the “COMPATABILITY VALUE C3 [%] (MIC value)” value in the assay with C. acnes strain C3 is listed as 3.75%.
For `CCCCCCC(O)CO` (centres unmarked) [caprylyl glycol], in the assay with C. acnes strain K8, the “COMPATABILITY VALUE K8 [%] (MIC value)” value was 0.18%. The “COMPATABILITY VALUE C3 [%] (MIC value)” value in the assay with C. acnes strain C3 stood at 0.18%.
